The values below come from patent publication US20230364039A1, “Methods of Managing Side Effects of a Vasopressin Receptor Antagonist Therapy” (Emory University, priority 2020, published 2023).

Data set [1] has as its system adenosine monophosphate activated protein kinase (AMPK). In words: AMPK activator potency and specificity (preliminary data).
In data set [2] the test system is vasopressin type 2 receptor knockout mouse model. The data set can be described thus: Urine concentrating ability in vasopressin type 2 receptor knockout mouse model. The format is in vivo.
Data set [3] can be described thus: Hypoglycemia liability of AMPK activators. The format is in vivo. As to conditions: preliminary data.
Data set [4] relates to tolvaptan treated rats. In words: Urine osmolality / urine concentrating ability in tolvaptan treated rats. The format is in vivo. To be noted: FIG. 1; for urine osmolality: rats on tolvaptan 10 mg/kg/day by gavage, AMPK activator 2.5, 5 and 10 mg/kg/day up to 14 days, vs tolvaptan only. How it is done:
Tolvaptan (10 mg/kg/day) was delivered by gavage feeding daily. AMPK activator was given at 2.5, 5 and 10 mg/kg/day for up to 14 total days, with daily urine collection for osmolality determination. Light bars: Osmolality in rats receiving tolvaptan only. Black bars: treated rats. Mean±s.e., n=4-5 for lower doses, 8-10 for 10 mg/kg/day, *=p<0.05.

The subject of data set [5] is autosomal dominant polycystic kidney disease (ADPKD). To be noted: cited from earlier work.
In data set [6] the test system is rodents with nephrogenic diabetes insipidus. As to conditions: Efe et al., JCI Insight 2016; cited from earlier work.
For data set [7] the following is noted: general statement on some AMPK activators; cited from earlier work.

Read-outs that look alike come from different tables or passages of the source.

Regarding `NC(=O)C1(CCCCCCCCCCCCC2(C(N)=O)CC2)CC1` [NP-5033, 1,1′-(dodecane-1,12-diyl)bis(cyclopropane-1-carboxamide)], in data set [1], the “potency and specificity as AMPK activator” value is “potent, specific”. Further, the urine concentrating ability entry in data set [2] and in data set [4] (tolvaptan treated rats) was “improvement in urine concentrating ability” each time. In data set [3], the hypoglycemia entry is given as “does not cause hypoglycemia”. For the same compound, the urine osmolality entry in data set [4] is given as “increases urine osmolality”; in data set [4] (listed as AMPK activator), “urine osmolality increases”.

Regarding `Cc1ccccc1C(=O)Nc1ccc(C(=O)N2CCCC(O)c3cc(Cl)ccc32)c(C)c1` (stereo not shown) [tolvaptan, N-(4-(7-chloro-5-hydroxy-2,3,4,5-tetrahydro-1H-benzo[b]azepine-1-carbonyl)-3-methylphenyl)-2-methylbenzamide], the “progression of renal cyst development” value in data set [5] (ADPKD) is reported as “slows the progression of renal cyst development”. In data set [5] (tolvaptan treatment, polyuria defined as greater than 2.5 L or 3 L over 24 hours in adults), the “side effect: urine volume” value is “overt polyuria”.

For the compound `CN(C)C(=N)N=C(N)N` [metformin], in data set [6], the urine concentration entry is given as “improves urine concentration”. The hypoglycemia result in data set [7] is listed as “risk of developing hypoglycemia”.
